In patent publication US20230036911A1, “CULTURE SYSTEMS FOR THE EFFICIENT PRODUCTION OF GENE TRANSFER VECTORS” (Greffex, Inc., priority 2019, published 2023):

Assays:
HEK293-type cells [1] = assay: Production (encapsidation) of the fully deleted helper virus independent Adenoviral vector fdhiAdGFP, read out as GFP-expressing cells after infection with supernatant; format: cell-based, human
Description: In the present example, the use of ascorbic acid composition exemplified by its used for the production of DNA virus, such as, but not limited to, a fully deleted helper virus independent Adenoviral vector. The vector production systems is comprised of three components (as exemplified in FIG. 1): (i) The GreVac module is packaged into the vector. It carries an expression cassette for a transgene, such as the green fluorescent protein, (cytomegalovirus immediate early promotor/enhancer / transgene / human growth hormone poly-adenylation sequence) flanked by ITRs and Ψ sequences, and is called fdhiAdGFP. […]
HEK293-type cells were taken from the working cell bank and were cultured in an appropriate tissue culture vessel in an appropriate tissue culture medium both known by someone experienced in the art. […] Cell growth and density were monitored daily by light microscopy. […]
To measure the efficiency of encapsidation, HEK293-type cells in culture were infected with defined volumes of the Adenoviral vector containing supernatants. […] Then they were harvested and examined for the extent of green fluorescence on a fluorescence activate cell analyzer (Beckman-Coulter Cytomics FC500) as an indicator of the number of infectious adenoviral particles released from the production cells.

HEK293-type cells [2] = assay: Cellular DNA content by Vybrant staining and flow cytometry of cultured HEK293-type cells; format: cell-based, human; conditions: ascorbic acid 5 µg/ml, 24 hrs of culture, versus culture in the absence of ascorbic acid
Description: HEK293-type cells were taken from a working cell bank and were cultured in an appropriate tissue culture vessel in an appropriate tissue culture medium both known by a person skilled in the art. They were expanded at appropriate conditions, such 37° C., 5% CO2. Cell growth and density was monitored daily. One day after cellular confluency was reached the cells were harvested by methods known by a person skilled in the art. The harvested HEK293-type cells were diluted in tissue culture medium and reseeded in an appropriate tissue culture vessel in and appropriate tissue culture medium. To one set of HEK293-type cells ascorbic acid was added at a final concentration of 5 µg/ml. After 24 hrs of culture, the cells were harvested and stained for DNA content by Vybrant (Invitrogen) following the manufacturers protocols. The cells were analyzed by fluorescence on a fluorescence activate cell analyzer (Beckman-Coulter Cytomics FC500).

O=C1O[C@H]([C@@H](O)CO)C(O)=C1O [ascorbic acid]
rate of encapsidation of a gene transfer vector (HEK293-type cells [1]; ascorbic acid added to production cells, conclusion from the studies): increased the rate of encapsidation | number of infected (GFP-expressing) cells after infection with Adenoviral vector containing supernatant (HEK293-type cells [1]; production cells with ascorbic acid 5 µg/ml, 5 days of production, transduced cells read after 2 days, versus no ascorbic acid): significantly larger number of infected cells | levels of DNA content in cells (HEK293-type cells [2]): increased levels of DNA | percentage of cells in the S and G2 stages of the cell cycle (HEK293-type cells [2]): a larger percentage of cells had entered the S and G2 stages of the cell cycle
